The values below come from PMC3547291 (Bioorganic & medicinal chemistry letters, 2012).

One test addresses PDGFRβ (Homo sapiens, UniProt P09619). In words: Kinase inhibition functional assay. The test is classed as biochemical.
Another test deals with T1, FLT3 (Homo sapiens, UniProt P36888).
T1 sequence (P36888 27-993): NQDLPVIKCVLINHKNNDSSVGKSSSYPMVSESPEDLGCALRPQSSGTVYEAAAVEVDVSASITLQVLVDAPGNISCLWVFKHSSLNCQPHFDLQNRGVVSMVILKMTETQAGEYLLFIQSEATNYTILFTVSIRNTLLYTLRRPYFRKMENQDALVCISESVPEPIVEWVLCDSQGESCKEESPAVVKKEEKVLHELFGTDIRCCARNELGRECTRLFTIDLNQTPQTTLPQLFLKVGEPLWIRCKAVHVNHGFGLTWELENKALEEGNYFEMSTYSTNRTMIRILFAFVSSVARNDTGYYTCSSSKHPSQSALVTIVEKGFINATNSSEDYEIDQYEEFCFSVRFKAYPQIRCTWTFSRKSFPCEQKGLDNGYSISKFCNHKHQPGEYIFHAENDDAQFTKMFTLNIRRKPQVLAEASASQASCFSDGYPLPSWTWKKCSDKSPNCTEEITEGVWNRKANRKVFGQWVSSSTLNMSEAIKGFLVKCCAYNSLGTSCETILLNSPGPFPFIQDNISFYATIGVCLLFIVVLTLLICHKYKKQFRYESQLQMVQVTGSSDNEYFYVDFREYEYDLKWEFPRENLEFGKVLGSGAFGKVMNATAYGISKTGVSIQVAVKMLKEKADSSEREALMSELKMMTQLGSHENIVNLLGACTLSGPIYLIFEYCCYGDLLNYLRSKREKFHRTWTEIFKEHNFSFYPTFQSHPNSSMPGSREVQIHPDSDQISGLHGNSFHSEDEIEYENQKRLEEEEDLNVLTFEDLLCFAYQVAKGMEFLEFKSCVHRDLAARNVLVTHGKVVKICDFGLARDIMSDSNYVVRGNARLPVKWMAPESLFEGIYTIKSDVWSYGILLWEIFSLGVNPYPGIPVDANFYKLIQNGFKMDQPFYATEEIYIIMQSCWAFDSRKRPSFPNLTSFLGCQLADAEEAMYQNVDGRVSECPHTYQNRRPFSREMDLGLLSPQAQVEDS
The experiment in a line: Kinase inhibition functional assay. In kind it is biochemical.

Broadly, the IC50 is the midpoint of a concentration-inhibition curve.

PDGFRβ, sequence (P09619 33-1106): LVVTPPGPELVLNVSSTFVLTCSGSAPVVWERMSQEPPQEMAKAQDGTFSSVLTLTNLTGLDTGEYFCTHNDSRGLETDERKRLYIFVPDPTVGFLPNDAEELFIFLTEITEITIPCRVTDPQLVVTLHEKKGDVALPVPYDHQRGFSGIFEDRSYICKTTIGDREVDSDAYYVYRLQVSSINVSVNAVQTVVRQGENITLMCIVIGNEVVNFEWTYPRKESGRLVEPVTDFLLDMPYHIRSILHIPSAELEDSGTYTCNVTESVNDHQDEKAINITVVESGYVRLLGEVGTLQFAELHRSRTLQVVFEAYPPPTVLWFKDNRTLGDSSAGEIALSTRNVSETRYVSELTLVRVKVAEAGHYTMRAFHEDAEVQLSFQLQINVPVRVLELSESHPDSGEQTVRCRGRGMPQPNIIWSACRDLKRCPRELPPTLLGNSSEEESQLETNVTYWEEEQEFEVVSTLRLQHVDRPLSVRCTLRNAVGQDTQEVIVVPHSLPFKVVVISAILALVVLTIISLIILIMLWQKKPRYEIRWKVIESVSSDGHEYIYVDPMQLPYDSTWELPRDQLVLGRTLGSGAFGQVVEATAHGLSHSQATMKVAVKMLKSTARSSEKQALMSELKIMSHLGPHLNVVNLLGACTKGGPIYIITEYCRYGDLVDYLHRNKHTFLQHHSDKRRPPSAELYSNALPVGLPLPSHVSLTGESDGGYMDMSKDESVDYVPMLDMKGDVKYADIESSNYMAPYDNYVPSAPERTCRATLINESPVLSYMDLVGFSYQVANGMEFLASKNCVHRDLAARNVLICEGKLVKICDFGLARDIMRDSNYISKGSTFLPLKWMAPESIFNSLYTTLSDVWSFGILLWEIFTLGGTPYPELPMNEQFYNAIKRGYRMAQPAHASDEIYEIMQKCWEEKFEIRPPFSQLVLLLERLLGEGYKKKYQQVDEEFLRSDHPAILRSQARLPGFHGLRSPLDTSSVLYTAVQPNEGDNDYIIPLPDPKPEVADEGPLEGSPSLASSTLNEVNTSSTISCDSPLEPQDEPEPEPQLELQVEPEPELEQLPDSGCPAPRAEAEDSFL

The molecule `Cc1cn(-c2cc(F)cc(NC(=O)c3ccc(C)c(Nc4nccc(-c5cccnc5)n4)c3)c2)cn1` [Compound 2b] had an IC50 at PDGFRβ of over 50000 nM.

The molecule `Cc1cc(NC(=O)c2ccc(C)c(Nc3nccc(-c4cccnc4)n3)c2)cc(-n2cnc(C)c2)c1` [Compound 2c] came in with an IC50 at FLT3 of 118 nM.
